From patent publication US20170197938A1, “A QUINOLINE DERIVATIVE FOR THE TREATMENT OF INFLAMMATORY DISEASES AND AIDS” (ABIVAX, priority 2014, published 2017)

Columns and labels:
[1] = tested on: HIV-1; assay: Inhibition of HIV-1 production in infected PBMCs (p24 ELISA); format: cell-based; details: Human immunodeficiency virus 1, PBMC, read-out: Activity (IC50)
Experimental: Within this framework, the peripheral blood mononuclear cells (PBMCs) of healthy donors are isolated by centrifugation on a FICOLL gradient. The cells are then activated two days to a density of 1.5×10^6 cells/ml in RPMI plutamax medium supplemented with 10% fetal calf serum (FCS), 40 U/ml of IL2 and 5 μg/ml PHA, in an incubator at 37° C., 5% CO2.
A standard experiment using 96 plates to test 30 molecules in triplicates including positive and negative controls, is performed as follows:
PHA/IL2 activated PBMCs are washed with RPMI 10% FCS and resuspended at 1.5×10^6 cells/ml in RPMI glutamax 10% FCS, 40 U/ml I12. The cells are seeded in 96 wells (1.5 10^5 cells/well/100 μl). Viral infection is performed with 1 ng of AdaM/well. 100 μl of tested molecules at concentration of 20 μM are added to each well (10 μM final concentration). Virus production is determined by p24 antigen immunosorbent assays after 3 and 6 days of infection (Kit Innogenetics). Typically PBMCs are prepared from several healthy donors (around 11 different donors). […]
The efficacy of compound of formula (1) and of compound no 1 as disclosed in document WO 2012/080953 is measured by the HIV-specific enzyme-linked immunosorbent assay, p24 ELISA.
Drug efficacy is expressed as percent inhibition of the HIV p24 antigen in this rapid and sensitive assay.

[2] = tested on: miR-124; assay: miR-124 expression in PBMCs treated with screened molecules (RT-qPCR, relative quantification); format: cell-based, human; details: for Fold-change compared to DMSO treated cells, Mean (miR-124 expression): PBMCs of healthy donors, 6 days treatment, quinoline derivative 5 μM, antiretroviral drugs 10 μM, mean of 4 or 5 donors; for effect on miR-124 expression in PBMCs (in words): antiretrovirals in four donors
Experimental: For that purpose, Peripheral blood mononuclear cells (PBMCs) of several healthy donors have been isolated by centrifugation on a FICOLL™ gradient according to standard protocols.
Briefly, 60-70 mL of buffy-coat are poured in a flask of 175 cm^2, and the volume is adjusted to 300 mL using PBS in order to obtain a dilution of about 5-fold of the buffy cost. 38 mL of diluted Buffy are then added to Falcon™ tubes of 50 mL comprising 12 mL of FICOLL™ (Histopack-1077) at ambient temperature. The preparation is centrifugated for 30 minutes at 515 rcf at ambient temperature. The lymphocyte ring is recovered from the Falcon™ tube with a transfer pipette (Pastette®) and then washed with PBS using centrifugation for 10 minutes at 290 rcf and at ambient temperature until the supernatant becomes clear.
The cells are then resuspended at 37° C. to a density of 1.5×10^6 cells/mL in RPMI Glutamax medium (Life Technologies Ref 61870-010) supplemented with 10% fetal calf serum (FCS) (Thermo Fisher Ref SV30160.03) and without activation. Cells are incubated for 48 hours at 37° C. under 5% CO2.
Six-well plates are used for the screening. Within each well comprising 3.10^6 cell/4 ml RPMI supplemented with 10% fetal calf serum and 40 U/mL IL-2 (Peprotech Ref 200-02) are added screened molecules. 100% DMSO (4 μL) is added to the well and tested as a negative control.
Each tested condition is set up as described here below and the final corresponding volume is adjusted accordingly in the well: • 1) Quinoline derivative in 100% DMSO—(5 μM and final volume 4 μL) • 2) Antiretroviral drugs: Maraviroc, Efavirenz, Darunavir, AZT (10 μM for all—final volume 4 μL).
The wells are incubated for three days at 37° C. under 5% CO2. Medium is changed (Day 3) according to standard protocols. Briefly, plates are centrifugated at 290 rcf for 5 minutes and 3 mL of supernatant is removed. 3 mL of RPMI supplemented with 10% fetal calf serum and 40 U/mL IL-2 is then added with 3 μL of a stock solution of screened molecule at 5 mM in 100% DMSO or 3 μL of 100% DMSO as a negative control.
Cells are recovered within Falcon™ tubes of 15 mL, centrifugated at 290 rcf for 5 minutes, and then washed in 10 mL PBS and further centrifugated at 290 rcf for 5 minutes. Cells are then resuspended in 1 mL PBS and counted.
6×10^6 cells are recovered and centrifugated at 290 rcf for 5 minutes. The cell pellet is lysed in 300 μL of ML lysis buffer from the Macherey Nagel Nucleospin® miRNA extraction kit (Macherey Nagel Ref 740971), and further stored at −20° C.
5 μL of 2×10^8 copies/μL of spike-in control (Ce_miR-39 from QIAGEN®—reference 219610 of SEQ ID No 6) are added for each sample. The miRNA extraction is achieved using the protocol from Macherey Nagel Nucleospin® miRNA extraction kit using an elution volume for RNAs of 50 μL and miRNAs of 30 μL, and further stored at −20° C.
The reverse transcription step is followed for 12 μL of miRNA using the miScript RT II reverse transcription (RT) kit from QIAGEN® using the miScript HiSpec buffer, and further stored at −20° C.
The quantitative PCR step is achieved using the QIAGEN® miScript SYBR® Green PCR kit and miScript Primer Assays according to the manufacturer's protocol.
The reaction is repeated in triplicates in a 384-well plate according to the manufacturer's protocol on a LightCycler® […] Roche Real-Time PCR system. Cycling conditions are also set up according to the manufacturer's protocol:
From a dilution to the 1/10th in H2O for the miR-124 qPCR (Hs'miR-124a) or to the 1/100th for reference/housekeeping gene qPCR (Hs_miR-26a and Hs_miR-191, using miScript Primer Assays (Hs_miR-124a, Hs_miR-26a and Hs_miR-191 or QIAGEN®—references ms00006622, ms00029239 and ms00003682).
The analysis is achieved using relative quantification models without efficiency correction (2^−ΔΔCp) using the average of crossing points (Cp) values from triplicates of miR-124 and the average of the average of triplicates of miR-26a and miR-191. […]

## FC(F)(F)c1ccnc(Nc2ccc3c(OCCN4CCOCC4)ccc(Cl)c3n2)c1
[1]
  IC50: 62.3 µM

## Cc1cn([C@H]2C[C@H](N=[N+]=[N-])[C@@H](CO)O2)c(=O)[nH]c1=O [AZT]
[2]
  Fold-change compared to DMSO treated cells, Mean (miR-124 expression): 0.90
  effect on miR-124 expression in PBMCs (in words): none of the known antiretroviral (Maraviroc, Effavirenz, Darunavir or AZT) has any significant effect

## FC(F)(F)c1ccnc(Nc2ccc3cc(OCCN4CCOCC4)cc(Cl)c3n2)c1 [Compound of formula (1), 8-chloro-6-(2-morpholinoethoxy)-N-(4-(trifluoromethyl)pyridin-2-yl)quinolin-2-amine]
[1]
  IC50: 0.43 µM
[2]
  Fold-change compared to DMSO treated cells, Mean (miR-124 expression): 32.04
  effect on miR-124 expression in PBMCs (in words): up-regulate the expression levels of miR-124

## CC(C)CN(C[C@@H](O)[C@H](Cc1ccccc1)NC(=O)O[C@H]1CO[C@H]2OCC[C@H]21)S(=O)(=O)c1ccc(N)cc1 [Darunavir]
[2]
  Fold-change compared to DMSO treated cells, Mean (miR-124 expression): 1.08
  effect on miR-124 expression in PBMCs (in words): none of the known antiretroviral (Maraviroc, Effavirenz, Darunavir or AZT) has any significant effect

## O=C1Nc2ccc(Cl)cc2[C@@](C#CC2CC2)(C(F)(F)F)O1 [Effavirenz, Efavirenz]
[2]
  Fold-change compared to DMSO treated cells, Mean (miR-124 expression): 0.46
  effect on miR-124 expression in PBMCs (in words): none of the known antiretroviral (Maraviroc, Effavirenz, Darunavir or AZT) has any significant effect

## Maraviroc
[2]
  Fold-change compared to DMSO treated cells, Mean (miR-124 expression): 0.73
  effect on miR-124 expression in PBMCs (in words): none of the known antiretroviral (Maraviroc, Effavirenz, Darunavir or AZT) has any significant effect
